Reference: patent US9388126B2, “Sigma receptor ligands and methods of modulating cellular protein homeostasis using same” (Drexel University, priority 2012, dated 2016)

Tests used:
Format in all cases: cell-based, human
[1] = test system: MDA-MB-468 cells; experiment: Cell death by trypan blue exclusion; details: 10 μM with bortezomib 1, 10, 100 nM, 20 hours
Description: Trypan blue exclusion and propidium iodide staining were used to quantify general cell death and the presence of apoptotic cell death was confirmed by immunoblot. The percentage of dead cells in a given population was determined by quantifying the number of trypan blue positive (dead) cells and dividing by the total number of trypan blue positive and negative cells.

[2] = test system: MDA-MB-468 (GFP-LC3), MDA-MB-468 and T47D breast adenocarcinoma cells; experiment: Autophagy markers (GFP-LC3II, GFP-LC3 punctae, endogenous LC3II); details: 10 μM, ~16 hours
Description: FIG. 56A is an immunoblot illustrating MDA-MB-468 breast adenocarcinoma cells stably transfected with GFP-LC3 (green fluorescent protein tagged light chain 3, an autophagy marker) treated for ˜16 hours with 10 μM IPAG or 10 μM 1-3 JMS-51-58. The appearance of GFP-LC3II was an indication of autophagosome formation. FIG. 56B is an image illustrating formation of autophagosomes (GFP-LC3 punctae) in MDA468 (GFP-LC3) treated with 10 μM JMS-51-58 as in FIG. 56A. The arrow points to an example of GFP-LC3-positive autophagosomes. The white bar at the bottom of the image indicates 100 μm. FIG. 56C is an image of an immunoblot illustrating the appearance of endogenous LC3II, a marker of autophagosome formation, in MDA-MB-468 breast adenocarcinoma cells treated for 16 hours with 10 μM of JMS-51-58. FIG. 56D is an image of an immunoblot illustrating the appearance of endogenous LC3II, a marker of autophagosome formation, in T47D breast adenocarcinoma cells treated for 16 hours with 10 μM JMS-51-58.

[3] = test system: MDA-MB-468 and T47D breast adenocarcinoma cells; experiment: Translational arrest immunoblot (P-S6K, P-4E-BP1); details: 10 μM, 16 hours
Description: FIG. 57A is an image of an immunoblot illustrating MDA-MB-468 breast adenocarcinoma cells treated for 16 hours with 10 μM of JMS-51-58. FIG. 57B is an image of an immunoblot illustrating T47D breast adenocarcinoma cells treated for 16 hours with 10 μM of JMS-51-58. The levels of phosphothreonine 389-p70S6Kinase (P-S6K) and phosphoserine 65-4E-BP1 (P-4E-BP1) were evaluated by immunoblot. Decreased levels of both phosphoprotein levels indicated diminished protein synthesis.

[4] = test system: MDA-MB-468 and T47D breast adenocarcinoma cells; experiment: ER stress response immunoblot (P-p38MAPK, GRP78/BiP); details: 10 μM, 16 hours
Description: FIG. 58A is an image of an immunoblot of MDA-MB-468 breast adenocarcinoma cells treated for 16 hours with 10 μM JMS-51-58. FIG. 58B is an image of an immunoblot of T47D breast adenocarcinoma cells treated for 16 hours with 10 μM JMS-51-58. The levels of phospho-Thr 180/Tyr 182 p38MAPK (P-p38MAPK) and GRP78/BiP and were evaluated by immunoblot.

[5] = test system: MDA-MB-468 and MDA-MB-231 breast adenocarcinoma cells; experiment: Poly-ubiquitylated protein immunoblot, breast adenocarcinoma cells; details: 10 μM, 16 hours, MDA-MB-468 and MDA-MB-231
Description: FIG. 34A is an image of an immunoblot of MDA-MB-468 breast adenocarcinoma cells treated with 10 μM Sigma1 antagonist (IPAG) for the indicated times, up to 24 hours. Total cell lysates were resolved by SDS-PAGE and immunoblotted with a poly-ubiquitin antibody P4D1. FIG. 34B is an image of an immunoblot of HepG2 hepatocellular carcinoma cells treated for 20 hours with 10 μM of indicated Sigma1 ligands.
FIG. 59, comprising FIGS. 59A-59B, illustrates the finding that the novel Sigma1 ligand JMS-51-58 modulated the ubiquitin proteasome system. FIG. 59A is an image of an immunoblot evaluating the levels of poly-ubiquitylated proteins of MDA-MB-468 breast adenocarcinoma treated for 16 hours with 10 μM of JMS-51-58. FIG. 59B is an image of an immunoblot evaluating the levels of poly-ubiquitylated proteins of MDA-MB-231 breast adenocarcinoma cells treated for 16 hours with 10 μM of JMS-51-58. The levels of poly-ubiquitylated proteins were evaluated by immunoblot.

[6] = test system: MDA-MB-468, T47D, MDA-MB-231 and PC3 cells; experiment: Cell proliferation by Alamar blue assay, tumor cell lines; details: four drug concentrations, 40-70 hours of treatment
Description: In vitro cell proliferation was quantified by Alamar blue assay. The anti-proliferative effects of four drug concentrations of novel Sigma1 small molecule ligand JMS-51-2nd-58 were quantified after 40-70 hours of treatment. Data are representative of an experiment formed in triplicate for each cell line. FIG. 60A is a graph illustrating cell death in MDA-MB-468 breast adenocarcinoma cell cultures. FIG. 60B is a graph illustrating cell death in T47D breast adenocarcinoma cell cultures. FIG. 60C is a graph illustrating cell death in MDA-MB-231 breast adenocarcinoma cell cultures. FIG. 60D is a graph illustrating cell death in PC3 prostate adenocarcinoma cell cultures.

[7] = test system: MDA-MB-231 breast adenocarcinoma cells; experiment: Alamar blue proliferation assay with bortezomib; details: ~70 hours
Description: FIG. 61, comprising FIGS. 61A-61B, is a set of graphs illustrating the finding that the novel Sigma1 ligand JMS-51-58 potentiated proteasome inhibitor mediated inhibition of tumor cell proliferation. In vitro cell proliferation was quantified by Alamar blue assay. The anti-proliferative effects of four drug concentrations of novel Sigma1 small molecule ligand JMS-51-58, were quantified after ˜70 hours of treatment of MDA-MB-231 breast adenocarcinoma cell cultures. […] Note the shift to the left of the dose-response curve (broken line). Data are representative of an experiment performed in triplicate.

[8] = test system: MDA-MB-231 and PC3 cells; experiment: In vitro cell adhesion by Alamar blue assay; details: 16 hours in the presence of drug
Description: In vitro cell adhesion was quantified by Alamar blue assay. MDA-MB-231 and PC3 cells were detached with 0.25% trypsin+2 mM EDTA and reseeded onto 96 well plates. At the time of cell seeding, IPAG (Sigma1 putative antagonist) was added at the indicated doses to wells containing adenocarcinoma cells. The suspended cells were allowed to sediment and adhere for 16 hours in the presence of drug. Subsequently, the culture medium was removed by aspiration, each well washed once with 0.2 ml PBS (without calcium and magnesium), and Alamar blue assay was performed to quantify the number of live cells adhered to the surface of each well. FIG. 63A is a graph illustrating cell adherence in MDA-MB-231 breast adenocarcinoma cells. FIG. 63B is a graph illustrating cell adherence in PC3 prostate adenocarcinoma cells. The same procedure was performed using the indicated concentrations of JMS-51-58. FIG. 63C is a graph illustrating cell adherence in MDA-MB-231 breast adenocarcinoma cells. FIG. 63D is a graph illustrating cell adherence in PC3 prostate adenocarcinoma cells. Standard deviation bars are shown.

Compound: N=C(NCCCOc1ccc(F)cc1)Nc1ccc(I)cc1 [JMS-51-58, 1-(3-(4-fluorophenoxy)propyl)-3-(4-iodophenyl)guanidine]
- potentiation of proteasome inhibitor (bortezomib) mediated cell death [1]: potentiated proteasome inhibitor mediated tumor cell death
- induction of autophagy [2]: induced autophagy
- translational arrest (decreased P-S6K and P-4E-BP1) [3]: mediated translational arrest
- ER stress response [4]: mediated ER stress response
- levels of poly-ubiquitylated proteins [5]: increased ubiquitylated protein levels compared to the DMSO control
- tumor cell proliferation [6]: inhibited tumor cell proliferation
- cell proliferation and rates of cell death ([7]; 3 μM): did not alter cell proliferation or rates of cell death
- potentiation of bortezomib (BTZ) inhibition of cell proliferation ([7]; sub-lethal dose (3 μM)): potentiated the cell proliferation inhibiting effects of bortezomib
- cell adhesion [8]: inhibited adhesion of metastatic breast and prostate adenocarcinoma cell lines
